Data as given in patent US11174291B2, “Silstatin compounds” (Arizona Board of Regents on behalf of Arizona State …, priority 2015, dated 2021).

Legend:
Type in all cases: cell-based, human
[1] = system: MCF-7; assay: NCI sulforhodamine B growth inhibition, breast cancer cells; settings: MCF-7 breast, 48 h
Method: (§1) Inhibition of human cancer cell growth was assessed using the National Cancer Institute's standard sulforhodamine B assay as previously described.^19In summary, cells in a 5% fetal bovine serum/RPMI1640 medium were inoculated in 96-well plates and incubated for 24 hrs. Next, serial dilutions of the compounds were added. After 48 h, the plates were fixed with trichloroacetic acid, stained with sulforhodamine B, and read with an automated microplate reader. A growth inhibition of 50% (GI50 or the drug concentration causing a 50% reduction in the net protein increase) was calcd from optical density data with Immunosoft software. Normal cells were treated in identical conditions. Normal human prostate CRL-2221 (PZ—HPV-7) was grown in MEM 10% FBS and normal human breast MCF-10A in MEGM kit.

[2] = system: BXPC-3; assay: NCI sulforhodamine B growth inhibition, pancreas cancer cells; settings: BXPC3 pancreas, 48 h
Method: as §1

[3] = system: NCI-H460; assay: NCI sulforhodamine B growth inhibition, lung cancer cells; settings: 48 h
Method: as §1

[4] = system: mini panel of cancer cell lines; assay: Growth inhibition across the mini panel of cancer cell lines; settings: mini panel of cancer cell lines (Table 1)
Method: as §1
The growth inhibition property of the silstatins and some intermediates were evaluated against a mini panel of cancer cell lines (Table 1).

[5] = system: KM20L2; assay: NCI sulforhodamine B growth inhibition, colon cancer cells; settings: 48 h
Method: as §1

[6] = system: DU-145; assay: NCI sulforhodamine B growth inhibition, prostate cancer cells; settings: DU145 prostate, 48 h
Method: as §1

[7] = system: SF268; assay: NCI sulforhodamine B growth inhibition, CNS cancer cells; settings: 48 h
Method: as §1

SMILES: CC(C)C[C@H]1OC(=O)[C@H](C(C)C)NC(=O)[C@H](C)OC(=O)[C@@H](C(C)C)NC(=O)[C@@H](CC(C)C)OC(=O)[C@H](C(C)C)NC(=O)[C@H](C)OC(=O)[C@@H](C(C)C)NC(=O)[C@@H](CC(C)C)OC(=O)[C@H](C(C)C)NC(=O)[C@H](C)OC(=O)[C@@H](C(C)C)NC1=O [Silstatin 1 (7a), Cyclo-[Val-D-Hica-D-Val-Lac]3]
- Growth inhibition of human cancer cell lines GI50 [1]: 0.11 ng/mL
- Growth inhibition of human cancer cell lines GI50 [2]: 0.0008 µg/mL
- Growth inhibition of human cancer cell lines GI50 [3]: 0.0007 µg/mL
- Cancer cell growth inhibition, assessment in words [4]: did not affect its high potency
- Growth inhibition of human cancer cell lines GI50 [5]: 0.16 ng/mL
- Growth inhibition of human cancer cell lines GI50 [6]: 0.42 ng/mL
- Growth inhibition of human cancer cell lines GI50 [7]: 0.21 ng/mL

SMILES: CC(C)C[C@H]1OC(=O)[C@H](Cc2ccc(O)cc2)NC(=O)[C@H](C)OC(=O)[C@@H](C(C)C)NC(=O)[C@@H](CC(C)C)OC(=O)[C@H](C(C)C)NC(=O)[C@H](C)OC(=O)[C@@H](C(C)C)NC(=O)[C@@H](CC(C)C)OC(=O)[C@H](C(C)C)NC(=O)[C@H](C)OC(=O)[C@@H](C(C)C)NC1=O [Silstatin 3 (8b), Cyclo-{Tyr-D-Hica-D-Val-Lac-[Val-D-Hica-D-Val-Lac]2}]
- Growth inhibition of human cancer cell lines GI50 [1]: 1.6 ng/mL
- Growth inhibition of human cancer cell lines GI50 [2]: 0.005 µg/mL
- Growth inhibition of human cancer cell lines GI50 [3]: 0.0037 µg/mL
- Cancer cell growth inhibition, assessment in words [4]: somewhat decreased activity
- Growth inhibition of human cancer cell lines GI50 [5]: 1.1 ng/mL
- Growth inhibition of human cancer cell lines GI50 [6]: 5.1 ng/mL
- Growth inhibition of human cancer cell lines GI50 [7]: 4 ng/mL

SMILES: CC(C)[C@@H]1NC(=O)[C@H](C)OC(=O)[C@@H](C(C)C)NC(=O)[C@@H](CC2CCCCC2)OC(=O)[C@H]([C@@H](C)OC(C)(C)C)NC(=O)[C@H](C)OC(=O)[C@@H](C(C)C)NC(=O)[C@@H](CC2CCCCC2)OC(=O)[C@H](C(C)C)NC(=O)[C@H](C)OC(=O)[C@@H](C(C)C)NC(=O)[C@@H](CC2CCCCC2)OC1=O [Silstatin 14b, Cyclo-{Thr(tBu)-D-Hcha-D-Val-Lac-[Val-D-Hcha-D-Val-Lac]2}]
- Growth inhibition of human cancer cell lines GI50 [1]: 75 ng/mL
- Growth inhibition of human cancer cell lines GI50 [2]: 0.18 µg/mL
- Growth inhibition of human cancer cell lines GI50 [3]: 0.32 µg/mL
- Growth inhibition of human cancer cell lines GI50 [5]: 80 ng/mL
- Growth inhibition of human cancer cell lines GI50 [6]: 120 ng/mL
- Growth inhibition of human cancer cell lines GI50 [7]: 75 ng/mL

SMILES: CC(C)C[C@H]1OC(=O)[C@H](C(C)C)NC(=O)[C@H](C)OC(=O)[C@@H](C(C)C)NC(=O)[C@@H](CC(C)C)OC(=O)[C@H](C(C)C)NC(=O)[C@H](C)OC(=O)[C@@H](C(C)C)NC(=O)[C@@H](CC2CCCCC2)OC(=O)[C@H](Cc2ccc(OC(C)(C)C)cc2)NC(=O)[C@H](C)OC(=O)[C@@H](C(C)C)NC1=O [Silstatin 17b, Cyclo-{Tyr(tBu)-D-Hcha-D-Val-Lac-[Val-D-Hica-D-Val-Lac]2}]
- Growth inhibition of human cancer cell lines GI50 [1]: 32 ng/mL
- Growth inhibition of human cancer cell lines GI50 [2]: 0.09 µg/mL
- Growth inhibition of human cancer cell lines GI50 [3]: 0.12 µg/mL
- Growth inhibition of human cancer cell lines GI50 [5]: 52 ng/mL
- Growth inhibition of human cancer cell lines GI50 [6]: 40 ng/mL
- Growth inhibition of human cancer cell lines GI50 [7]: 60 ng/mL

SMILES: CC(C)[C@@H]1NC(=O)[C@H](C)OC(=O)[C@@H](C(C)C)NC(=O)[C@@H](CC2CCCCC2)OC(=O)[C@H]([C@@H](C)O)NC(=O)[C@H](C)OC(=O)[C@@H](C(C)C)NC(=O)[C@@H](CC2CCCCC2)OC(=O)[C@H](C(C)C)NC(=O)[C@H](C)OC(=O)[C@@H](C(C)C)NC(=O)[C@@H](CC2CCCCC2)OC1=O [Silstatin 5 (15a), Cyclo-{Thr-D-Hcha-D-Val-Lac-[Val-D-Hcha-D-Val-Lac]2}]
- Growth inhibition of human cancer cell lines GI50 [1]: 3.1 ng/mL
- Growth inhibition of human cancer cell lines GI50 [2]: 0.03 µg/mL
- Growth inhibition of human cancer cell lines GI50 [3]: 0.021 µg/mL
- Cancer cell growth inhibition, assessment in words [4]: very high inhibitory activity
- Growth inhibition of human cancer cell lines GI50 [5]: 4.4 ng/mL
- Growth inhibition of human cancer cell lines GI50 [6]: 5 ng/mL
- Growth inhibition of human cancer cell lines GI50 [7]: 4.4 ng/mL

SMILES: CC(C)C[C@H]1OC(=O)[C@H](Cc2ccc(OC(C)(C)C)cc2)NC(=O)[C@H](C)OC(=O)[C@@H](C(C)C)NC(=O)[C@@H](CC(C)C)OC(=O)[C@H](C(C)C)NC(=O)[C@H](C)OC(=O)[C@@H](C(C)C)NC(=O)[C@@H](CC(C)C)OC(=O)[C@H](C(C)C)NC(=O)[C@H](C)OC(=O)[C@@H](C(C)C)NC1=O [Silstatin 7c, Cyclo-{Tyr(tBu)-D-Hica-D-Val-Lac-[Val-D-Hica-D-Val-Lac]2}]
- Growth inhibition of human cancer cell lines GI50 [1]: 4.2 ng/mL
- Growth inhibition of human cancer cell lines GI50 [2]: 0.03 µg/mL
- Growth inhibition of human cancer cell lines GI50 [3]: 0.029 µg/mL
- Growth inhibition of human cancer cell lines GI50 [5]: 4.8 ng/mL
- Growth inhibition of human cancer cell lines GI50 [6]: 11 ng/mL
- Growth inhibition of human cancer cell lines GI50 [7]: 2.5 ng/mL

SMILES: CC(C)C[C@H]1OC(=O)[C@H](C(C)C)NC(=O)[C@H](C)OC(=O)[C@@H](C(C)C)NC(=O)[C@@H](CC(C)C)OC(=O)[C@H]([C@@H](C)O)NC(=O)[C@H](C)OC(=O)[C@@H](C(C)C)NC(=O)[C@@H](CC(C)C)OC(=O)[C@H](C(C)C)NC(=O)[C@H](C)OC(=O)[C@@H](C(C)C)NC1=O [Silstatin 2 (8a), Cyclo-{Thr-D-Hica-D-Val-Lac-[Val-D-Hica-D-Val-Lac]2}]
- Growth inhibition of human cancer cell lines GI50 [1]: 2.2 ng/mL
- Growth inhibition of human cancer cell lines GI50 [2]: 0.004 µg/mL
- Growth inhibition of human cancer cell lines GI50 [3]: 0.0032 µg/mL
- Cancer cell growth inhibition, assessment in words [4]: somewhat decreased activity
- Growth inhibition of human cancer cell lines GI50 [5]: 3.3 ng/mL
- Growth inhibition of human cancer cell lines GI50 [6]: 6 ng/mL
- Growth inhibition of human cancer cell lines GI50 [7]: 3.1 ng/mL

SMILES: CC(C)[C@@H]1NC(=O)[C@H](C)OC(=O)[C@@H](C(C)C)NC(=O)[C@@H](CC2CCCCC2)OC(=O)[C@H](C(C)C)NC(=O)[C@H](C)OC(=O)[C@@H](C(C)C)NC(=O)[C@@H](CC2CCCCC2)OC(=O)[C@H](Cc2ccc(OC(C)(C)C)cc2)NC(=O)[C@H](C)OC(=O)[C@@H](C(C)C)NC(=O)[C@@H](CC2CCCCC2)OC1=O [Silstatin 14c, Cyclo-{Tyr(tBu)-D-Hcha-D-Val-Lac-[Val-D-Hcha-D-Val-Lac]2}]
- Growth inhibition of human cancer cell lines GI50 [1]: >1000 ng/mL
- Growth inhibition of human cancer cell lines GI50 [2]: >1 µg/mL
- Growth inhibition of human cancer cell lines GI50 [3]: >1 µg/mL
- Growth inhibition of human cancer cell lines GI50 [5]: >1000 ng/mL
- Growth inhibition of human cancer cell lines GI50 [6]: >1000 ng/mL
- Growth inhibition of human cancer cell lines GI50 [7]: >1000 ng/mL

SMILES: CC(C)C[C@H]1OC(=O)[C@H](C(C)C)NC(=O)[C@H](C)OC(=O)[C@@H](C(C)C)NC(=O)[C@@H](CC(C)C)OC(=O)[C@H](C(C)C)NC(=O)[C@H](C)OC(=O)[C@@H](C(C)C)NC(=O)[C@@H](CC2CCCCC2)OC(=O)[C@H](Cc2ccc(O)cc2)NC(=O)[C@H](C)OC(=O)[C@@H](C(C)C)NC1=O [Silstatin 8 (18b), Cyclo-{Tyr-D-Hcha-D-Val-Lac-[Val-D-Hica-D-Val-Lac]2}]
- Growth inhibition of human cancer cell lines GI50 [1]: 1.1 ng/mL
- Growth inhibition of human cancer cell lines GI50 [2]: 0.006 µg/mL
- Growth inhibition of human cancer cell lines GI50 [3]: 0.004 µg/mL
- Cancer cell growth inhibition, assessment in words [4]: rescuing the activity
- Growth inhibition of human cancer cell lines GI50 [5]: 2.1 ng/mL
- Growth inhibition of human cancer cell lines GI50 [6]: 5.4 ng/mL
- Growth inhibition of human cancer cell lines GI50 [7]: 3 ng/mL

SMILES: CC(C)C[C@H]1OC(=O)[C@H](C(C)C)NC(=O)[C@H](C)OC(=O)[C@@H](C(C)C)NC(=O)[C@@H](CC2CCCCC2)OC(=O)[C@H]([C@@H](C)OC(C)(C)C)NC(=O)[C@H](C)OC(=O)[C@@H](C(C)C)NC(=O)[C@@H](CC(C)C)OC(=O)[C@H](C(C)C)NC(=O)[C@H](C)OC(=O)[C@@H](C(C)C)NC1=O [Silstatin 17a, Cyclo-{Thr(tBu)-D-Hcha-D-Val-Lac-[Val-D-Hica-D-Val-Lac]2}]
- Growth inhibition of human cancer cell lines GI50 [1]: 1 ng/mL
- Growth inhibition of human cancer cell lines GI50 [2]: 0.023 µg/mL
- Growth inhibition of human cancer cell lines GI50 [3]: 0.009 µg/mL
- Growth inhibition of human cancer cell lines GI50 [5]: 2.4 ng/mL
- Growth inhibition of human cancer cell lines GI50 [6]: 7 ng/mL
- Growth inhibition of human cancer cell lines GI50 [7]: 4 ng/mL
